Measured values as given in PubChem BioAssay (NCI).
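How tested: cells in 96-well plates exposed to compound for 48 hours at five concentrations. Definition used: TGI = concentration required for complete inhibition of growth.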

How the values were obtained:
Experiment in all cases: NCI-60 cell line screen, 48 h
KM12 colon = tested on: KM12 colon
NCI-H23 lung = tested on: NCI-H23 lung
A549 NSCLC = tested on: A549 NSCLC
LOX IMVI melanoma = tested on: LOX IMVI melanoma
UACC-257 melanoma = tested on: UACC-257 melanoma
IGROV1 ovarian = tested on: IGROV1 ovarian
K-562 leukemia = tested on: K-562 leukemia
SK-MEL-5 melanoma = tested on: SK-MEL-5 melanoma
CAKI-1 renal = tested on: CAKI-1 renal
OVCAR-8 ovarian = tested on: OVCAR-8 ovarian
U251 CNS = tested on: U251 CNS
SW-620 colon = tested on: SW-620 colon
SK-OV-3 ovarian = tested on: SK-OV-3 ovarian
NCI-H226 lung = tested on: NCI-H226 lung
HCT-15 colon = tested on: HCT-15 colon
HOP-92 NSCLC = tested on: HOP-92 NSCLC
MDA-N = tested on: MDA-N
SK-MEL-2 melanoma = tested on: SK-MEL-2 melanoma
A498 renal = tested on: A498 renal
HS 578T breast = tested on: HS 578T breast
MOLT-4 leukemia = tested on: MOLT-4 leukemia
SF-268 CNS = tested on: SF-268 CNS
EKVX NSCLC = tested on: EKVX NSCLC
NCI-H522 lung = tested on: NCI-H522 lung
MALME-3M melanoma = tested on: MALME-3M melanoma
OVCAR-5 ovarian = tested on: OVCAR-5 ovarian
HCT-116 colon = tested on: HCT-116 colon
MCF7 breast = tested on: MCF7 breast
UACC-62 melanoma = tested on: UACC-62 melanoma
RPMI-8226 leukemia = tested on: RPMI-8226 leukemia
DU-145 prostate = tested on: DU-145 prostate
MDA-MB-435 = tested on: MDA-MB-435
TK-10 renal = tested on: TK-10 renal
HL-60(TB) leukemia = tested on: HL-60(TB) leukemia
OVCAR-3 ovarian = tested on: OVCAR-3 ovarian
BT-549 breast = tested on: BT-549 breast
SF-295 CNS = tested on: SF-295 CNS
COLO 205 colon = tested on: COLO 205 colon
HCC-2998 colon = tested on: HCC-2998 colon
SK-MEL-28 melanoma = tested on: SK-MEL-28 melanoma
UO-31 renal = tested on: UO-31 renal
NCI-H460 lung = tested on: NCI-H460 lung
HOP-62 NSCLC = tested on: HOP-62 NSCLC
786-0 renal = tested on: 786-0 renal
CCRF-CEM leukemia = tested on: CCRF-CEM leukemia
SNB-19 CNS = tested on: SNB-19 CNS
SF-539 CNS = tested on: SF-539 CNS
MDA-MB-231 breast = tested on: MDA-MB-231 breast
ACHN renal = tested on: ACHN renal
T-47D breast = tested on: T-47D breast
M14 melanoma = tested on: M14 melanoma
NCI/ADR-RES ovarian = tested on: NCI/ADR-RES ovarian
SN12C renal = tested on: SN12C renal
HT29 colon = tested on: HT29 colon
PC-3 prostate = tested on: PC-3 prostate
SNB-75 CNS = tested on: SNB-75 CNS

Measured: TGI

CNC(=O)CN(C)C(=O)CCC(=O)N(C)C
> 100 µM: KM12 colon | NCI-H23 lung | A549 NSCLC | LOX IMVI melanoma | UACC-257 melanoma | IGROV1 ovarian | K-562 leukemia | SK-MEL-5 melanoma | CAKI-1 renal | OVCAR-8 ovarian | U251 CNS | SW-620 colon | SK-OV-3 ovarian | NCI-H226 lung | HCT-15 colon | HOP-92 NSCLC | MDA-N | SK-MEL-2 melanoma | A498 renal | HS 578T breast | MOLT-4 leukemia | SF-268 CNS | EKVX NSCLC | NCI-H522 lung | MALME-3M melanoma | OVCAR-5 ovarian | HCT-116 colon | MCF7 breast | UACC-62 melanoma | RPMI-8226 leukemia | DU-145 prostate | MDA-MB-435 | TK-10 renal | HL-60(TB) leukemia | OVCAR-3 ovarian | BT-549 breast | SF-295 CNS | COLO 205 colon | HCC-2998 colon | SK-MEL-28 melanoma | UO-31 renal | NCI-H460 lung | HOP-62 NSCLC | 786-0 renal | CCRF-CEM leukemia | SNB-19 CNS | SF-539 CNS | MDA-MB-231 breast | ACHN renal | T-47D breast | M14 melanoma | NCI/ADR-RES ovarian | SN12C renal | HT29 colon | PC-3 prostate | SNB-75 CNS
